{"source": "paper PMC5841205", "about": "“Pharmacological targeting of apelin impairs glioblastoma growth” (Brain, 2017)", "key": {"[1]": {"test_system": "panel of normal human and primary glioblastoma cell lines", "test": "Cell viability (UptiBlue), cell line panel", "format": "cell-based", "details": "MM54 2, 20 and 100 μM, 3 days; cardiomyocytes, HaCAT, CaCo2, hCMEC/D3, Jurkat, SH-SY5Y, SVGp12, glioblastoma lines", "procedure": "Cell viability in response to MM54 was tested using the UptiBlue reagent (Interchim), a fluorometric/colorimetric growth indicator based on the detection of metabolic activity. Briefly, cells were seeded at a density of 2 × 10^3 per well, UptiBlue added at a concentration of 10% v/v and cells maintained at 37°C 5% CO2 until analysis. Absorbance was measured at Day 5 following treatment at 570 and 600 nm on a FLUOStar OPTIMA (BMG Labtech) plate reader, and the percentage of cell viability calculated according to the manufacturer’s instructions.\nFigure 5 Pharmacological inhibition of APLNR by MM54 impairs the in vitro expansion of temozolomide-resistant GSCs. (A) Cell viability following treatment with DMSO, MM54 (2, 20 and 100 μM) or temozolomide (TMZ, 50 μM) was measured using UptiBlue in different cell types for 3 days. […] (B and C) Cell viability following treatment with DMSO or TMZ (100 μM) was measured using UptiBlue in GSCs #1, #4, #9, and #12 for 3 days. […] (D) GSC#1 viability was assessed following combined treatment with MM54 (0.2–20 μM) and TMZ (constant ratios TMZ:MM54 2.5:1, 5:1, and 10:1) in NS and human brain endothelial cell-conditioned medium (EC-CM) conditions. (E and F) Tumoursphere per field of view (fov) and ALDH activity were assessed in response to MM54 (0.2–100 μM) or TMZ (10–100 μM) treatment at Day 5. […]"}, "Solubility in vehicles": {"test": "Solubility in vehicles", "format": "physicochemical", "procedure": "Conditions Solubility Solubility […]\nsaline (10%) + hydroxypropyl-β-cyclodextrin >0.69 >1.20 […]\nA. MM54 compound (1 mg) was re-suspended in the different vehicles for 24h, RT, under gentle rotation. Solutions were analysed by HPLC and concentrations calculated using DMSO-re-suspended MM54 as standard. […]"}, "[2]": {"test": "Plasma pharmacokinetics after intraperitoneal administration", "format": "in vivo, mouse", "procedure": "(§1) B. MM54 compound was solubilized in water and administered intraperitoneally (IP) at the dose of 3.6 mg/kg to healthy mice.\n(§2) Mice (3/group) were sacrificed at 10 min, 30 min, 60 min, 2h, 4h, 6h, 8h and 24h post-injection. Plasma and brains were collected and further processed for LC-MS/MS analysis. B/P index is 0.24. AUC is area under the curve. n.d. stands for ‘not able to be"}, "[3]": {"test": "Brain pharmacokinetics after intraperitoneal administration", "format": "in vivo, mouse", "procedure": "as §1, §2"}, "tumour-bearing mice": {"test_system": "tumour-bearing mice", "test": "Cardiac frequency, blood pressure and glycaemia, MM54", "format": "in vivo, mouse", "details": "MM54 2 mg/kg bi-weekly for 4 weeks", "procedure": "(§3) To test potential toxic effects of MM54 and MM193 in vivo, mice were administered 2 mg/kg of MM54, MM193 or vehicle bi-weekly for 4 weeks. At sacrifice, blood was taken for analysis and the heart, kidney, aorta and liver removed, weighed and fixed for histological analysis. For the glycaemic study, animals were starved for 6 h prior to sacrifice.\nFigure 6 Pharmacological inhibition of APLNR by MM54 reduces xenograft progression. (A) Tumour-bearing mice were fasted for 6 h and the effect of either MM54 (2 mg/kg) or DMSO vehicle treatment on glycaemia measured via blood analysis. (B) Cardiac frequency and blood pressure were measured in random-fed tumour-bearing animals. (C) Nude mice were implanted with GSC#9 (5 × 10^5 cells) in each flank and treated with either DMSO vehicle or the APLNR antagonist (MM54, 2 mg/kg) bi-weekly from Week 4. Tumour volume was measured weekly until Week 11. n = 10/group. (D and E) Cryosections from GSC tumours were assessed for PECAM (red), Ki67 (green), NESTIN (green), SOX2 (green) and apoptosis (TUNEL). (F) Tumour sections were assessed for pS9-GSK3β staining in DMSO vehicle- and MM54-treated animals. Scale bars = 40 µm. […] All panels are representative of n = 3, unless specified."}, "[4]": {"test_system": "heart, kidney and liver of mice", "test": "Histological and biochemical analysis of heart, kidney and liver", "format": "in vivo, mouse", "procedure": "as §3, with “sacrifice. […]” for “sacrifice.”\nIn order to test potential toxic effects of MM54 in vivo, C57Bl/6J female mice were administered 2 mg/kg of MM54\nor DMSO vehicle, bi-weekly for 4 weeks. At sacrifice, blood was taken for analysis and the heart, kidney, aorta and\nliver removed, weighed and fixed for histological analysis (as shown in Figure S4). n=4 mice/group, 63 mean±SEM."}, "[5]": {"details": "saline (10%) + hydroxypropyl-β-cyclodextrin, 1 mg, 24h, RT, gentle rotation, HPLC"}, "[6]": {"details": "saline (10%) + kolliphor EL, 1 mg, 24h, RT, gentle rotation, HPLC"}, "[7]": {"details": "saline (15%) + kolliphor HS15 + PEG (10%) + ethanol (5%), 1 mg, 24h, RT, gentle rotation, HPLC"}, "[8]": {"details": "saline (15%) + kolliphor HS15, 1 mg, 24h, RT, gentle rotation, HPLC"}, "[9]": {"details": "saline (NaCl 0.9%), 1 mg resuspended, 24h, RT, gentle rotation, HPLC"}, "[10]": {"details": "healthy animals, intraperitoneal"}, "[11]": {"details": "healthy mice, IP 3.6 mg/kg in water, 3/group, LC-MS/MS"}, "[12]": {"details": "mouse, plasma, healthy mice, IP 3.6 mg/kg in water, 3/group, LC-MS/MS"}}, "note": "Positions of bridges follow the written chain, without caps; N, C: chain ends. Residues, ends and D or L forms follow the SMILES beside them.", "data": [{"smiles": "CC(C)C[C@@H]1NC(=O)[C@H](CCCNC(=N)N)NC(=O)[C@@H]2CCCN2C(=O)[C@H](CCCNC(=N)N)NC(=O)[C@@H](NC(=O)[C@H](Cc2c[nH]cn2)NC(=O)[C@H](CCCCN)NC(=O)[C@@H]2CSSC[C@H](N)C(=O)N[C@@H](CCCNC(=N)N)C(=O)N3CCC[C@H]3C(=O)N[C@@H](CCCNC(=N)N)C(=O)N[C@@H](CC(C)C)C(=O)N2)CSSC[C@@H](C(=O)O)NC1=O", "note": "[MM54, cyclo(1–6)CRPRLC-KH-cyclo(9–14)CRPRLC] (H-CRPRLCKHCRPRLC-OH; disulfide 1-6, 9-14)", "values": [{"measurement": "toxicity (viability) in cell line panel", "setting": "[1]", "value": "no overtly toxic effects on any of the cell lines tested"}, {"measurement": "solubility", "setting": "Solubility in vehicles; in the tested solutions (vehicles)", "value": "good solubility in the tested solutions"}, {"measurement": "Solubility (mM), saline + hydroxypropyl-β-cyclodextrin", "setting": "Solubility in vehicles; [5]", "value": "> 0.69", "unit": "mM"}, {"measurement": "Solubility (mg.ml-1), saline + hydroxypropyl-β-cyclodextrin", "setting": "Solubility in vehicles; [5]", "value": "> 1.20", "unit": "mg/mL"}, {"measurement": "Solubility (mM), saline + kolliphor EL", "setting": "Solubility in vehicles; [6]", "value": "> 0.60", "unit": "mM"}, {"measurement": "Solubility (mg.ml-1), saline + kolliphor EL", "setting": "Solubility in vehicles; [6]", "value": "> 1.04", "unit": "mg/mL"}, {"measurement": "Solubility (mM), saline + kolliphor HS15 + PEG + ethanol", "setting": "Solubility in vehicles; [7]", "value": "> 0.73", "unit": "mM"}, {"measurement": "Solubility (mg.ml-1), saline + kolliphor HS15 + PEG + ethanol", "setting": "Solubility in vehicles; [7]", "value": "> 1.27", "unit": "mg/mL"}, {"measurement": "Solubility (mM), saline + kolliphor HS15", "setting": "Solubility in vehicles; [8]", "value": "> 0.69", "unit": "mM"}, {"measurement": "Solubility (mg.ml-1), saline + kolliphor HS15", "setting": "Solubility in vehicles; [8]", "value": "> 1.20", "unit": "mg/mL"}, {"measurement": "Solubility (mg.ml-1), saline", "setting": "Solubility in vehicles; [9]", "value": "> 1.27", "unit": "mg/mL"}, {"measurement": "solubility at 24 h", "setting": "Solubility in vehicles; [9]", "value": "> 0.73", "unit": "mM"}, {"measurement": "detection in plasma", "setting": "[2]; [10]", "value": "detected in the plasma and the brain"}, {"measurement": "Cmax (µM), plasma", "setting": "[2]; [11]", "value": 0.6, "unit": "µM"}, {"measurement": "AUC", "setting": "[2]; [12]", "value": 1470, "unit": "ng·h/mL"}, {"measurement": "half-life", "setting": "[2]; [12]", "value": "2.37 ± 0.367", "unit": "h"}, {"measurement": "Cmax", "setting": "[2]; mouse, plasma, healthy mice, IP 3.6 mg/kg in water, 3/group, LC-MS/MS, read-out: Cmax (µg.ml-1), plasma", "value": 1.1, "unit": "µg/mL"}, {"measurement": "Tmax", "setting": "[2]; mouse, plasma, healthy mice, IP 3.6 mg/kg in water, 3/group, LC-MS/MS, read-out: Time Cmax, plasma (converted)", "value": 0.167, "unit": "h"}, {"measurement": "detection in brain", "setting": "[3]; [10]", "value": "detected in the plasma and the brain"}, {"measurement": "Cmax (µM), brain", "setting": "[3]; [11]", "value": 0.14, "unit": "µM"}, {"measurement": "Cmax (µg.ml-1), brain", "setting": "[3]; [11]", "value": 0.26, "unit": "µg/mL"}, {"measurement": "Time Cmax, brain", "setting": "[3]; [11]", "value": 10, "unit": "min"}, {"measurement": "Kp", "setting": "[3]; mouse, healthy mice, IP 3.6 mg/kg in water, brain vs plasma, read-out: B/P index", "value": 0.24}, {"measurement": "cardiac frequency, blood pressure and glycaemic index", "setting": "tumour-bearing mice", "value": "did not induce alterations to these parameters"}, {"measurement": "histological and biochemical analysis of heart, kidney and liver", "setting": "[4]; MM54 2 mg/kg bi-weekly for 4 weeks vs vehicle", "value": "revealed no differences between MM54-treated animals and vehicle controls"}, {"measurement": "overt adverse effects in vivo", "setting": "[4]; present dose (2 mg/kg), repeated administration", "value": "does not exert any overt adverse effects in vivo"}]}]}
